Results taken from PubChem BioAssay AID252 (DTP/NCI, 2004).
Several values for one entry are separate records, joined by “and”; a condition that tells them apart may be missing. Equal entries are not always repeated. Toxic doses and inconclusive results are not listed. How the source made its calls: active means survival T/C of 150% or more; inactive means T/C below 125% in these data.

System: BDF1 mice, intracerebral L1210 leukemia, survival T/C
Experiment: NCI In Vivo Anticancer Drug Screen. Data for tumor model L1210 Leukemia (intracerebral) in B6D2F1 (BDF1) mice
Conditions: higher = longer survival
In short: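 Readout is the T/C ratio: survival of compound-treated animals over that of vehicle-treated controls, in mice bearing transplantable tumour.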

Measured: T/C

CS(C)=O
inactive: endpoint: mean survival time, dose: 0.5 mg/kg/injection, schedule: Q#C X009 (adlb), vehicle: water 102 % of control | endpoint: mean survival time, dose: 1.0 mg/kg/injection, schedule: Q#C X009 (adlb), vehicle: water 102 % of control | endpoint: mean survival time, dose: 2.0 mg/kg/injection, schedule: Q#C X009 (adlb), vehicle: water 101 % of control | endpoint: mean survival time, dose: 4.0 mg/kg/injection, schedule: Q#C X009 (adlb), vehicle: water 101 % of control | endpoint: mean survival time, dose: 8.0 mg/kg/injection, schedule: Q#C X009 (adlb), vehicle: water 98 % of control | endpoint: mean survival time, dose: 10.0 mg/kg/injection, schedule: Q01DX001 (ip), vehicle: DMSO 110 % of control | endpoint: mean survival time, dose: 25.0 mg/kg/injection, schedule: Q01DX001 (ip), vehicle: DMSO 101 % of control | endpoint: mean survival time, dose: 35.0 mg/kg/injection, schedule: Q01DX001 (ip), vehicle: DMSO 101 % of control | endpoint: mean survival time, dose: 50.0 mg/kg/injection, schedule: Q01DX001 (ip), vehicle: DMSO 101 % of control | endpoint: mean survival time, dose: 0.5 % drug in feed or water or air, schedule: Q#C X009 (oral), vehicle: other 102 % of control | endpoint: mean survival time, dose: 1.0 % drug in feed or water or air, schedule: Q#C X009 (oral), vehicle: other 102 % of control | endpoint: mean survival time, dose: 1.0 grams/kg/injection, schedule: Q01DX001 (ip), vehicle: Klucel (hydroxypropylcellulose) (HPC) 110 % of control | endpoint: mean survival time, dose: 2.0 % drug in feed or water or air, schedule: Q#C X009 (oral), vehicle: other 101 % of control | endpoint: mean survival time, dose: 2.1 grams/kg/injection, schedule: Q01DX001 (ip), vehicle: Klucel (hydroxypropylcellulose) (HPC) 101 % of control | endpoint: mean survival time, dose: 4.0 % drug in feed or water or air, schedule: Q#C X009 (oral), vehicle: other 101 % of control | endpoint: mean survival time, dose: 8.0 % drug in feed or water or air, schedule: Q#C X009 (oral), vehicle: other 98 % of control | endpoint: median survival time, dose: 1.0 mg/kg/injection, schedule: Q#C X009 (oral), vehicle: water 103 % of control and 118 % of control | endpoint: median survival time, dose: 2.0 mg/kg/injection, schedule: Q#C X009 (oral), vehicle: water 101 % of control (2×) and 105 % of control | endpoint: median survival time, dose: 4.0 mg/kg/injection, schedule: Q#C X009 (oral), vehicle: water 103 % of control and 107 % of control and 98 % of control | endpoint: median survival time, dose: 8.0 mg/kg/injection, schedule: Q#C X009 (oral), vehicle: water 101 % of control and 83 % of control and 97 % of control
